Values belong to the compound of their own block, whether it stands above or below them.
Tests used:
14-3-3/NFκBp65 peptide = 14-3-3/NFκBp65 peptide (Homo sapiens, UniProt P31947); assay: Fluorescence polarization assay, FITC-NFκBp65 peptide binding to 14-3-3 with increasing fragment
Description: As the primary assays to test for binding and activity we used X-ray protein crystallography (crystal soaking) and a fluorescence polarization assay (FP) employing a fluorophore-labelled (FITC) version of the NFκBp65 peptide. After some rounds of analogues testing, we were able to identify the molecules' electrochemical properties that are enabling the lysine attach to the carbonyl feature of the fragment. […] This reflects a principal feature of orthosteric PPI stabilization which is based on the direct, simultaneous physical interaction of the stabilizer with both protein partners.
In addition to the hydrophobic interaction of the primary phenyl ring of TCF521-129 with the side chain of Ile46, the 2,6-dimethylmorpholine substituent sits on top of this side chain and additionally contacts with one of its methyl groups Pro47 and Gly48. The opposite methyl is engaging a hydrophobic patch in the ‘roof’ of the 14-3-3 groove comprised of Leu218, Ile219, and […] (FIG. 9B, upper row). […] The potential PPI stabilizing activity of both fragments were tested in a fluorescence polarization assay measuring the binding of a fluorescently-labelled (FITC) NFκBp65 peptide to 14-3-3 in the presence of an increasing concentration of the fragment.

Pin1_72/14-3-3σΔC = target: T1, Pin1_72/14-3-3σΔC (Homo sapiens, UniProt P31947); assay: X-ray crystal soaking; type: binding; conditions: 10 mM fragment soak
T1 construct: The 14-3-3σ protein was C-terminally truncated (ΔC) after T231 to enhance crystallization; His6 (cleaved yes); made in house; host or cells: E. coli BL21(DE3), pPROEX HTb
T1 sequence (P31947 1-231 limits assumed, stated change not applied, other chains not shown): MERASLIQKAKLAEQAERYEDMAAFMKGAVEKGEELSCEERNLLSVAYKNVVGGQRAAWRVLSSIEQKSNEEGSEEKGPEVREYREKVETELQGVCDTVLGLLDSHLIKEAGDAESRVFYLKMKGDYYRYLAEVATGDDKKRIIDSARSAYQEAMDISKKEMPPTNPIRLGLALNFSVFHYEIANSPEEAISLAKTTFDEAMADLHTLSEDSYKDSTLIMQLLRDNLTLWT
Method: X-Ray Crystallography. […] B-Raf/14-3-3σΔC and Abl1/14-3-3σΔC crystals were grown in a sitting drop set up. […] All crystals were directly flash-frozen in liquid nitrogen and data acquisition took place at either the P11 beamline of […] campus, Hamburg, Germany) or i-03/i-24 beamline of the diamond light source (Oxford, UK) or in-house. Fragment screening was performed by crystal soaking, whereby a final concentration of 10 mM fragment was added to fully grown crystals (final DMSO ≤1%). The fragment/crystal mixtures incubated for seven days prior to data acquisition. The diffraction data were analyzed with […] pipeline and MolRep was used for phasing. For model refinement Coot, Refmac5 and phenix.refine were utilized in iterative cycles. The elbow software of the phenix suite was used for ligand preparation based on fragment SMILES. Figures were generated with PyMOL© (V2.0.6, Schrodinger LLC).

14-3-3/Pin1_72 complex = target: T2, 14-3-3/Pin1_72 complex (Homo sapiens, UniProt P61981); assay: Cooperativity analysis, 14-3-3 titrations at varied constant fragment concentration; type: binding; conditions: 8 μM compound
T2 construct: the full length 14-3-3γ was dialysis against 25 mM HEPES pH 7.5; made in house; host or cells: E. coli BL21(DE3), pPROEX HTb
Description: Cooperativity in ternary complex formation. In contrast to PPI inhibition, where affinity to one of the protein pockets is the driving force for drug development, design of molecular glues is driven by cooperative ternary complex formation. Both CC50 and SF values are concentration dependent values and might differ based on assay design. […] Cooperative complex formation is often accompanied by structural changes of the interface of a complex which translates to increased stability of the ternary com-plex. In order to assess cooperativity of the ternary complex, fragments 13, 23, 27 and 28 were selected for cooper-activity analysis. The α-factor of the fragments were determined using 14-3-3 titrations in the presence of varied, but constant concentration of fragment in a dose-dependent manner. […] Further, the interval of change in stabilization further describes the systems cooperative behaviour.
However, at higher concentration regimes significant assay interference was observed, probably due to compound aggregation. Fragments 23, 27 and 28 all reached saturation or approached saturation enabling accurate determination of α-factor. […] KD remains constant also at higher concentrations of FC-A, indicating non-specific effects.

14-3-3/ERα complex = target: T3, 14-3-3/ERα complex (Homo sapiens, UniProt P61981); assay: Selectivity screening FA, ERα peptide; type: binding
T3 construct: the full length 14-3-3γ was dialysis against 25 mM HEPES pH 7.5; made in house; host or cells: E. coli BL21(DE3), pPROEX HTb
T3 sequence (P61981 1-247): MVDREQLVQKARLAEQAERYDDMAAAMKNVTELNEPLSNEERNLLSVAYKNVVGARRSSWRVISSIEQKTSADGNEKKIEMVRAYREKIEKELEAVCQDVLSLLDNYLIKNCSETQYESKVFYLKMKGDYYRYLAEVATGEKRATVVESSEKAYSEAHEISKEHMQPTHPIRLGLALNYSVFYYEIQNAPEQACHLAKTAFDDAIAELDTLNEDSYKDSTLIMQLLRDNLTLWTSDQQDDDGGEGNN
Description: Selectivity screening of covalent fragments. Drugging the hub protein 14-3-3 raises the challenge of selectivity. We hypothesized that the high level of cooperative behavior for 14-3-3/Pin1_72/28 complex is a function of the unique functionality and topology of the interface, specifically the +1 and +3 amino acid of Pin1_72 with the covalent fragment. We further rationalized that this cooperativity would likely translate to high selectivity. To test this hypothesis, fragments 13, 27 and 28 were screened at a single fragment concentration (100 μM) against a panel of 13 peptides as diverse representatives of 14-3-3 client proteins, differing in size and hydrophobicity of the +1 amino acid (FIG. 22A).
(§1) Fluorescence Anisotropy (FA) Assays.

ER [1] = target: T4, ER (Homo sapiens, UniProt P31947); assay: MS (KD,app), ER; type: binding; conditions: 24 hr incubation
T4 sequence (P31947 whole entry, other chains not shown): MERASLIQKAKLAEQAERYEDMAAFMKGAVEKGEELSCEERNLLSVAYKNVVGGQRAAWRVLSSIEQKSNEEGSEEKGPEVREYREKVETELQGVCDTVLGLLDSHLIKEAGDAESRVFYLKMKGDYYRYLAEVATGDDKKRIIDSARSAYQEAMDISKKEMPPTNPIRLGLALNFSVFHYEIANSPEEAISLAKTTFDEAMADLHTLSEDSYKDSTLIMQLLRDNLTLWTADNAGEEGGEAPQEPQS

ER [2] = target: T4, ER; assay: Fp (EC50)/fold-stabilization of peptide, ER; type: binding; conditions: 24 hr incubation
Pin1_72/14-3-3γ = target: T5, Pin1_72/14-3-3γ (Homo sapiens, UniProt P61981+Q13526); assay: Fluorescence anisotropy protein titration, Pin1_72/14-3-3γ at constant compound; type: binding; conditions: based on internal DMSO control and 100 μM fragment
T5 construct: the full length 14-3-3γ was dialysis against 25 mM HEPES pH 7.5; made in house; host or cells: E. coli BL21(DE3), pPROEX HTb
Description: Inspired by the binding poses of 3 and 9 we combined their structural features to improve stabilization. […] In case of complex stabilization, a left shift of apparent KD values is expected, here described as stabilization factors (SF).
as §1

14-3-3σ(C42)/ERα-pp = target: T6, 14-3-3σ(C42)/ERα-pp (Homo sapiens, UniProt P31947, C38N/N42C); assay: Fluorescence anisotropy, fragment titration to 14-3-3σ(C42) and fluorescein-ERα-pp; conditions: 1 μM 14-3-3σ(C42), 100 nM fluorescein-ERα-pp; read-out: EC50 (anisotropy, stabilization of ERα-pp binding)
T6 construct: with a truncated C-terminus after T231; His6 (N, cleaved yes); made in house; host or cells: E. coli NiCo21 (DE3), pPROEX HTb
T6 sequence (P31947 1-231 C38N/N42C, other chains not shown): as the sequence (P31947 1-231 limits assumed, stated change not applied, other chains not shown) above, with C38N, N42C counted along it
Method: We observed the same trend when we titrated the fragments into a mixture of 1 μM 14-3-3σ(C42) and 100 nM fluorescein-ERα-pp, conditions under which half of the peptide was initially bound. […] The maximum effect was instantaneous at a saturating concentration (100 μM).
Fluorescence Anisotropy. […] Final DMSO concentration in the assay was always 1%. Dilution series of 14-3-3 protein or fragments were made in black, round-bottom 384-microwell plates (Corning) in a final sample volume of 10 μL in triplicates. Fluorescence anisotropy measurements were performed directly and after overnight incubation at room-temperature, using a Tecan Infinite F500 plate reader (filter set λex: 485±20 nm, λem: 535±25 nm). Data reported are at endpoint. EC50 values were obtained from fitting the data with a four-parameter logistic model (4PL) in GraphPad Prism 6.

Sequence of 14-3-3/NFκBp65 peptide (P31947 whole entry, other chains not shown, the tested form may be a part): as the sequence (P31947 whole entry, other chains not shown) above

SMILES: C=CC(C)(C)OC[C@H]1O[C@H](O[C@@H]2C3=C([C@H](C)COC(C)=O)C[C@H](O)[C@]3(C)/C=C3/[C@@H](COC)CC[C@H]3[C@@H](C)[C@H]2O)[C@H](O)[C@@H](OC(C)=O)[C@@H]1O [FCA, Fusicoccin A, reference compound]
SF 8 μM (14-3-3/Pin1_72 complex): ~10 | stabilization of the 14-3-3/ERα complex (14-3-3/ERα complex): 110 fold

SMILES: CC(C)(Oc1ccc(Cl)cc1)C(=O)N1CCC(CNC(=O)CCl)CC1
Kd (ER [1]): 84.3 µM | EC50 (ER [2]): 38.9 µM

SMILES: CC(C)(Oc1ccc(Cl)cc1)C(=O)N1CCC(CCNC(=O)CCl)CC1
Kd (ER [1]): 33.7 µM | EC50 (ER [2]): 32.7 µM

SMILES: C=CC(C)(C)OC[C@H]1O[C@H](O[C@@H]2C3=C([C@H](C)COC(C)=O)C[C@H](O)[C@]3(C)/C=C3/[C@@H](COC)CC[C@H]3[C@@H](C)[C@H]2O)[C@H](O)[C@@H](OC(C)=O)[C@@H]1O [FC-A, fusicoccane-A]
EC50 (14-3-3σ(C42)/ERα-pp): 0.216 µM

Continued, values first:

EC50 (14-3-3/NFκBp65 peptide; read-out: EC50 (stabilizes interaction of peptide with 14-3-3)): 370 µM
SMILES: CC1CN(S(=O)(=O)c2ccc(C=O)cc2)CC(C)O1 (stereo not shown) [TCF521-129, 4-[(2,6-dimethylmorpholin-4-yl)sulfonyl]benzaldehyde]

PDB: electron density due to compound binding (Pin1_72/14-3-3σΔC): n. bind.
SMILES: O=Cc1ccc(-n2ccnc2-c2ccccc2)c(OC(F)(F)F)c1 [compound 20, 4-(2-phenyl-1H-imidazol-1-yl)-3-(trifluoromethoxy)benzaldehyde]

PDB: electron density due to compound binding (Pin1_72/14-3-3σΔC): n. bind | SF (fold stabilization) (Pin1_72/14-3-3γ): 3.32
SMILES: O=Cc1ccc(-n2ccnc2-c2ccc(Br)cc2)cc1Br [compound 24, 2-bromo-4-(2-(4-bromophenyl)-1H-imidazol-1-yl)benzaldehyde]

PPI stabilizing activity (14-3-3/NFκBp65 peptide; highest concentrations tested): only a very weak
SMILES: CC(=O)N1CCN(S(=O)(=O)c2ccc(C=O)cc2)CC1 [TCF521-123, 4-[(4-acetylpiperazin-1-yl)sulfonyl]benzaldehyde]

PDB: electron density due to compound binding (Pin1_72/14-3-3σΔC): n. bind.
SMILES: O=Cc1ccc(-n2ccnc2-c2ccccc2)c(Oc2ccccc2)c1 [compound 21, 3-phenoxy-4-(2-phenyl-1H-imidazol-1-yl)benzaldehyde]
